# Assay results: paper PMC6522912, “Evaluation of the published kinase inhibitor set to identify multiple inhibitors of bacterial ATP-dependent mur ligases” (Journal of Enzyme Inhibition and Medicinal Chemistry, 2019)
# Biological target: E. coli MurD (Escherichia coli, UniProt P14900)
# Assay: biochemical
# Conditions: 0.25 h, Table S1, PKIS screening; read-out: RA [%] at 100 µM MurD
# Method: (§1) Inhibition of the Mur ligases was determined using the malachite green assay, with slight modifications.
# (§2) In all cases, the final concentration of DMSO was 5% (v/v). After incubation for 15 min at 37 °C, the enzyme reaction was terminated by addition of 100 µM Biomol green reagent, and the absorbance was measured at 650 nm after 5 min. All of the experiments were run in duplicate. Residual activities were calculated with respect to control assays without the tested compounds, but with the 5% DMSO carrier.
# (§3) The published kinase inhibitor set compounds were evaluated for inhibition of MurC, D and F ligases from E. coli using the Malachite green assay, which detects orthophosphate generated during enzymatic reactions. To avoid non-specific inhibition due to aggregate formation, all of the compounds were tested in the presence of detergent (0.005% Triton-X114). The data are presented as the residual activities of these Mur ligases in the presence of 100 µM of each test compound (Supporting Information Table S1).
# E. coli MurD, sequence (P14900 whole entry): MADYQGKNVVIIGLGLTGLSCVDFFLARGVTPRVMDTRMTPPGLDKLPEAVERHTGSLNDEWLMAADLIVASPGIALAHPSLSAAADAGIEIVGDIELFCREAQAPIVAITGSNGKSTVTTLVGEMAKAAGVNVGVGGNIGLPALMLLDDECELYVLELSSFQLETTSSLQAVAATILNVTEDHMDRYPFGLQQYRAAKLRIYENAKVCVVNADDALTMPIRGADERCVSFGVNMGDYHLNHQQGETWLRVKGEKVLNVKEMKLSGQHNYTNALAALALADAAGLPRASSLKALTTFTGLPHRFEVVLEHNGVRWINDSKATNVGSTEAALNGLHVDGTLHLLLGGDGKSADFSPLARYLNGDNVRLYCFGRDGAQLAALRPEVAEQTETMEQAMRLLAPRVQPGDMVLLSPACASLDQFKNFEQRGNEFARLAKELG
row,SMILES,remaining activity at 100 µM
1,N#Cc1c(NC(=O)c2ccccc2F)sc2c1CCCC2 [GW572738X],91%
2,Fc1ccc(-c2c(-c3ccncc3)nc3n2CCS3)cc1 [SKF-86055],91%
3,FC(F)(F)c1cccc(Nc2nccc(-c3cnn4nc(-c5ccccc5)ccc34)n2)c1 [GW819077X],63%
4,Nc1nonc1-c1nc2cnccc2n1C1CC1 [SB-736302],100%
5,O=S(=O)(CCNCc1ccc(-c2ccc3ncnc(Nc4ccc(OCc5cccc(F)c5)c(Cl)c4)c3c2)o1)c1ccccc1 [GW633459A],80%
6,COc1ccccc1-c1cc(/C=C2\C(=O)Nc3ncc(Br)cc32)cc(Br)c1O [GW442130X],84%
7,COC(=O)Nc1nc2ccc(Sc3ccc(NC(=O)Nc4cc(C(F)(F)F)ccc4F)cc3)cc2[nH]1 [GW607049C],80%
8,NS(=O)(=O)c1ccc(NN=C2C(=O)Nc3ccc(C(=O)NCCCn4ccnc4)cc32)cc1 [GW290597X],92%
9,CCn1c(-c2nonc2N)nc2c(C#CC(C)(C)O)ncc(OC3CCNCC3)c21 [GSK619487A],86%
10,NS(=O)(=O)c1ccc(N/N=C2\C(=O)Nc3ccc4ncccc4c32)cc1 [GW305178X],57%
11,CCn1c(-c2nonc2N)nc2ccncc21 [SB-738561],58%
12,COc1ccc(-c2nn3ncccc3c2-c2ccnc(Nc3ccc4c(c3)OCCO4)n2)cc1 [GW827106X],32%
13,COc1cccc(-n2ncc3c(N/N=C/c4ccc(F)cc4)ncnc32)c1 [GW817396X],95%
14,Nc1nonc1-c1nc2cnccc2n1C1CCCCC1 [SB-734117],79%
15,[O-][S+]1CCN(Cc2ccc(-c3ccc4ncnc(Nc5ccc(OCc6ccccc6)c(Cl)c5)c4c3)o2)CC1 [GW583373A],59%
16,Nc1nccc(-c2c(-c3ccc(F)cc3)ncn2C2CCC(O)CC2)n1 (stereo not drawn) [SB-223133],87%
17,Fc1ccc(-c2ncn(CCCN3CCOCC3)c2-c2ccncc2)cc1 [SB-210313],91%
18,COc1cc(Nc2ncc(-c3ccccc3)o2)cc(OC)c1OC [GW627512B],72%
19,CN1CCN(CCCNc2nc3ccc(Oc4ccc(NC(=O)Nc5cc(C(F)(F)F)ccc5F)cc4)cc3[nH]2)CC1 [GW700494A],73%
20,CC(C)c1ccc2c(c1)NC(=O)C2=NNc1ccc(S(N)(=O)=O)cc1 [GW300653X],85%
21,Fc1ccc(-c2ncn(C3CCNCC3)c2-c2ccnc(Oc3ccc(Oc4ccccc4)cc3)n2)cc1 [SB-245392],41%

# Same assay, conditions: 0.25 h, read-out: RA [%] at 100 µM MurD
row,SMILES,remaining activity at 100 µM
1,Cc1cccc(-c2n[nH]cc2-c2ccc3ncccc3n2)n1 [GW786460X],76%

# Biological target: E. coli MurC (Escherichia coli, UniProt P17952)
# Assay: Malachite green inhibition assay, MurC
# Type: biochemical
# Conditions: 0.25 h, Table S1, PKIS screening; read-out: RA [%] at 100 µM MurC
# Method: as §1, §2
# as §3, with “S1). […] Additionally, regarding the data of profiled compounds in large panels of human kinase assays[41]” for “S1).”
# E. coli MurC, sequence (P17952 whole entry): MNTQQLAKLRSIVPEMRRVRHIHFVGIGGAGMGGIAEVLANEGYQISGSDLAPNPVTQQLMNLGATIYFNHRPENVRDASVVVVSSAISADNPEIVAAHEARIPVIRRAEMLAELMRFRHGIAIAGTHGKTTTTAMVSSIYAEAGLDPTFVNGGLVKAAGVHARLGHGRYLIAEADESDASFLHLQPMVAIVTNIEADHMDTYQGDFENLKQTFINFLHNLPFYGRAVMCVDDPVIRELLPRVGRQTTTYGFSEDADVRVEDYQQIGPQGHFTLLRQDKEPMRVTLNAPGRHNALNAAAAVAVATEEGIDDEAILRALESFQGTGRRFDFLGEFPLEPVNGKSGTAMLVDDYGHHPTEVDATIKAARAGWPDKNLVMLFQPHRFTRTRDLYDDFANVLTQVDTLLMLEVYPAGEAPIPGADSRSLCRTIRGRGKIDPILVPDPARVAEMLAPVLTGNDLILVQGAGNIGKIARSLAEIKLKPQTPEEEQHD
row,SMILES,remaining activity at 100 µM
1,N#Cc1c(NC(=O)c2ccccc2F)sc2c1CCCC2 [GW572738X],88%
2,Fc1ccc(-c2c(-c3ccncc3)nc3n2CCS3)cc1 [SKF-86055],98%
3,FC(F)(F)c1cccc(Nc2nccc(-c3cnn4nc(-c5ccccc5)ccc34)n2)c1 [GW819077X],50%
4,Nc1nonc1-c1nc2cnccc2n1C1CC1 [SB-736302],92%
5,O=S(=O)(CCNCc1ccc(-c2ccc3ncnc(Nc4ccc(OCc5cccc(F)c5)c(Cl)c4)c3c2)o1)c1ccccc1 [GW633459A],100%
6,COc1ccccc1-c1cc(/C=C2\C(=O)Nc3ncc(Br)cc32)cc(Br)c1O [GW442130X],100%
7,COC(=O)Nc1nc2ccc(Sc3ccc(NC(=O)Nc4cc(C(F)(F)F)ccc4F)cc3)cc2[nH]1 [GW607049C],62%
8,NS(=O)(=O)c1ccc(NN=C2C(=O)Nc3ccc(C(=O)NCCCn4ccnc4)cc32)cc1 [GW290597X],63%
9,CCn1c(-c2nonc2N)nc2c(C#CC(C)(C)O)ncc(OC3CCNCC3)c21 [GSK619487A],77%
10,NS(=O)(=O)c1ccc(N/N=C2\C(=O)Nc3ccc4ncccc4c32)cc1 [GW305178X],52%
11,CCn1c(-c2nonc2N)nc2ccncc21 [SB-738561],78%
12,COc1cccc(-n2ncc3c(N/N=C/c4ccc(F)cc4)ncnc32)c1 [GW817396X],69%
13,Nc1nonc1-c1nc2cnccc2n1C1CCCCC1 [SB-734117],100%
14,[O-][S+]1CCN(Cc2ccc(-c3ccc4ncnc(Nc5ccc(OCc6ccccc6)c(Cl)c5)c4c3)o2)CC1 [GW583373A],62%
15,Nc1nccc(-c2c(-c3ccc(F)cc3)ncn2C2CCC(O)CC2)n1 (stereo not drawn) [SB-223133],64%
16,Fc1ccc(-c2ncn(CCCN3CCOCC3)c2-c2ccncc2)cc1 [SB-210313],100%
17,COc1cc(Nc2ncc(-c3ccccc3)o2)cc(OC)c1OC [GW627512B],98%
18,CN1CCN(CCCNc2nc3ccc(Oc4ccc(NC(=O)Nc5cc(C(F)(F)F)ccc5F)cc4)cc3[nH]2)CC1 [GW700494A],99%
19,Cc1cccc(-c2n[nH]cc2-c2ccc3ncccc3n2)n1 [GW786460X],82%
20,CC(C)c1ccc2c(c1)NC(=O)C2=NNc1ccc(S(N)(=O)=O)cc1 [GW300653X],100%
21,Fc1ccc(-c2ncn(C3CCNCC3)c2-c2ccnc(Oc3ccc(Oc4ccccc4)cc3)n2)cc1 [SB-245392],27%

# Same assay, conditions: 0.25 h, read-out: RA [%] at 100 µM MurC, Table S1, PKIS screening
row,SMILES,remaining activity at 100 µM
1,COc1ccc(-c2nn3ncccc3c2-c2ccnc(Nc3ccc4c(c3)OCCO4)n2)cc1 [GW827106X],13%

# Biological target: E. coli MurF (Escherichia coli, UniProt P11880)
# Assay: biochemical
# Conditions: 0.25 h, Table S1, PKIS screening; read-out: RA [%] at 100 µM MurF
# Method: as §1, §2
# as §3, with “S1). […] Additionally, regarding the data of profiled compounds in large panels of human kinase assays[41]” for “S1).”
# E. coli MurF, sequence (P11880 whole entry): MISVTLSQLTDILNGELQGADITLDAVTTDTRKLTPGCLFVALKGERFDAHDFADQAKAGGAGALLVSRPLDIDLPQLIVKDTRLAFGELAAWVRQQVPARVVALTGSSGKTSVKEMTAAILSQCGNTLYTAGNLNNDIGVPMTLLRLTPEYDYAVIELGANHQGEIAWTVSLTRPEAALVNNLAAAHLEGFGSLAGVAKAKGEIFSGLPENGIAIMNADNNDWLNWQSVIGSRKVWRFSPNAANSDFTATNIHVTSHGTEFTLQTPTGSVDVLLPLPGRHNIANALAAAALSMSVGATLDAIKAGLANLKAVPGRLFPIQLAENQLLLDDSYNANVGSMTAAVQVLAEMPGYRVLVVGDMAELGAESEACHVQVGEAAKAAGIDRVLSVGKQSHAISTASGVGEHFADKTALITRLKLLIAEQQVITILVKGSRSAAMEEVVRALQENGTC
row,SMILES,remaining activity at 100 µM
1,N#Cc1c(NC(=O)c2ccccc2F)sc2c1CCCC2 [GW572738X],100%
2,Fc1ccc(-c2c(-c3ccncc3)nc3n2CCS3)cc1 [SKF-86055],89%
3,FC(F)(F)c1cccc(Nc2nccc(-c3cnn4nc(-c5ccccc5)ccc34)n2)c1 [GW819077X],58%
4,Nc1nonc1-c1nc2cnccc2n1C1CC1 [SB-736302],77%
5,O=S(=O)(CCNCc1ccc(-c2ccc3ncnc(Nc4ccc(OCc5cccc(F)c5)c(Cl)c4)c3c2)o1)c1ccccc1 [GW633459A],84%
6,COc1ccccc1-c1cc(/C=C2\C(=O)Nc3ncc(Br)cc32)cc(Br)c1O [GW442130X],67%
7,COC(=O)Nc1nc2ccc(Sc3ccc(NC(=O)Nc4cc(C(F)(F)F)ccc4F)cc3)cc2[nH]1 [GW607049C],91%
8,NS(=O)(=O)c1ccc(NN=C2C(=O)Nc3ccc(C(=O)NCCCn4ccnc4)cc32)cc1 [GW290597X],100%
9,CCn1c(-c2nonc2N)nc2c(C#CC(C)(C)O)ncc(OC3CCNCC3)c21 [GSK619487A],100%
10,NS(=O)(=O)c1ccc(N/N=C2\C(=O)Nc3ccc4ncccc4c32)cc1 [GW305178X],56%
11,CCn1c(-c2nonc2N)nc2ccncc21 [SB-738561],100%
12,COc1ccc(-c2nn3ncccc3c2-c2ccnc(Nc3ccc4c(c3)OCCO4)n2)cc1 [GW827106X],49%
13,COc1cccc(-n2ncc3c(N/N=C/c4ccc(F)cc4)ncnc32)c1 [GW817396X],41%
14,Nc1nonc1-c1nc2cnccc2n1C1CCCCC1 [SB-734117],93%
15,[O-][S+]1CCN(Cc2ccc(-c3ccc4ncnc(Nc5ccc(OCc6ccccc6)c(Cl)c5)c4c3)o2)CC1 [GW583373A],60%
16,Nc1nccc(-c2c(-c3ccc(F)cc3)ncn2C2CCC(O)CC2)n1 (stereo not drawn) [SB-223133],88%
17,Fc1ccc(-c2ncn(CCCN3CCOCC3)c2-c2ccncc2)cc1 [SB-210313],100%
18,COc1cc(Nc2ncc(-c3ccccc3)o2)cc(OC)c1OC [GW627512B],100%
19,CN1CCN(CCCNc2nc3ccc(Oc4ccc(NC(=O)Nc5cc(C(F)(F)F)ccc5F)cc4)cc3[nH]2)CC1 [GW700494A],95%
20,CC(C)c1ccc2c(c1)NC(=O)C2=NNc1ccc(S(N)(=O)=O)cc1 [GW300653X],75%
21,Fc1ccc(-c2ncn(C3CCNCC3)c2-c2ccnc(Oc3ccc(Oc4ccccc4)cc3)n2)cc1 [SB-245392],41%

# Same assay, conditions: 0.25 h, read-out: RA [%] at 100 µM MurF
row,SMILES,remaining activity at 100 µM
1,Cc1cccc(-c2n[nH]cc2-c2ccc3ncccc3n2)n1 [GW786460X],91%
